Laboratory results taken from ChEMBL document CHEMBL3414561, “Discovery of 4'-chloromethyl-2'-deoxy-3',5'-di-O-isobutyryl-2'-fluorocytidine (ALS-8176), a first-in-class RSV polymerase inhibitor for treatment of human respiratory syncytial virus infection” (J Med Chem, 2015).
Active and inactive are the calls of the source. The rule behind the calls is not given here.

Experiments:
[1] = Cytotoxicity against human HeLa cells assessed as cell viability by CellTiter-Glo luminescent assay; type: cell-based
[2] = Clearance in Sprague-Dawley rat at 5 mg/kg, iv; type: ADME, organism-based; design: dose 5 mg/kg, route intravenous; details: in vivo
[3] = Half life in Sprague-Dawley rat at 5 mg/kg, iv; type: ADME, organism-based; design: dose 5 mg/kg, route intravenous; details: in vivo
A549 = assay: Drug metabolism in human A549 cells assessed as nucleotide 5'-triphosphate level measured per million cells at 50 uM after 1 to 5 days by LC/MS/MS analysis; type: ADME, cell-based; details: a549, 50 µM
[4] = Drug uptake in Non-naive cynomolgus monkey assessed as lung NTP level at 5 mg/kg, iv after 1 hr; type: ADME, organism-based, Macaca fascicularis; design: dose 5 mg/kg, route intravenous; details: in vivo, read-out: Drug uptake
[5] = Drug uptake in Non-naive cynomolgus monkey assessed as lung NMP level at 5 mg/kg, iv after 1 hr; type: ADME, organism-based, Macaca fascicularis; design: dose 5 mg/kg, route intravenous; details: in vivo, read-out: Drug uptake
[6] = Drug metabolism in human Hep2 cells assessed as nucleotide 5'-triphosphate level measured per million cells at 50 uM after 1 to 5 days by LC/MS/MS analysis; type: ADME, cell-based; details: hep-2, 50 µM
[7] = Drug metabolism in human normal bronchial epithelial cells assessed as nucleotide 5'-triphosphate level measured per million cells at 50 uM after 1 to 5 days by LC/MS/MS analysis; type: ADME, cell-based; details: epithelial cell
[8] = Clearance in Non-naive cynomolgus monkey at 5 mg/kg, iv; type: ADME, organism-based, Macaca fascicularis; design: dose 5 mg/kg, route intravenous; details: in vivo
[9] = Half life in Non-naive cynomolgus monkey at 5 mg/kg, iv; type: ADME, organism-based, Macaca fascicularis; design: dose 5 mg/kg, route intravenous; details: in vivo
[10] = AUCinf in Non-naive cynomolgus monkey at 5 mg/kg, iv; type: ADME, organism-based, Macaca fascicularis; design: time infinity, dose 5 mg/kg, route intravenous; details: plasma
[11] = test system: Respiratory syncytial virus; assay: Antiviral activity against Respiratory syncytial virus subgenomic replicon system in 395 HeLa cells assessed as reduction in viral replication after 7 days by renilla luciferase assay; type: functional, organism-based; details: human respiratory syncytial virus, 168 h
[12] = Volume of distribution at steady state in Sprague-Dawley rat at 5 mg/kg, iv; type: ADME, organism-based; design: dose 5 mg/kg, route intravenous; details: in vivo, read-out: Vdss
[13] = AUCinf in Sprague-Dawley rat at 5 mg/kg, iv; type: ADME, organism-based; design: time infinity, dose 5 mg/kg, route intravenous; details: plasma
Cynomolgus monkey = assay: Ratio of uridine metabolite to parent cytidine in Non-naive cynomolgus monkey at 5 mg/kg, iv; type: ADME, organism-based, Macaca fascicularis; design: dose 5 mg/kg, route intravenous; details: in vivo
[14] = Volume of distribution at steady state in Non-naive cynomolgus monkey at 5 mg/kg, iv; type: ADME, organism-based, Macaca fascicularis; design: dose 5 mg/kg, route intravenous; details: in vivo, read-out: Vdss
[15] = Drug metabolism in human nasal cells assessed as nucleotide 5'-triphosphate level measured per million cells at 50 uM after 1 to 5 days by LC/MS/MS analysis; type: ADME, cell-based
[16] = target: DNA polymerase beta (Homo sapiens) (UniProt P06746); assay: Inhibition of human DNA-dependent DNA polymerase beta using calf thymus DNA/[3H]dTTP as substrate by microplate scintillation reader; details: concentration not given here
[17] = target: DNA-directed RNA polymerase, mitochondrial (Homo sapiens) (UniProt O00411); assay: Inhibition of human mitochondrial RNA polymerase assessed as 13-mer product using [33P]RNA/DNA primer/templates used by […] gel electrophoresis
DNA-directed RNA polymerase, mitochondrial (Homo sapiens), sequence (O00411 whole entry): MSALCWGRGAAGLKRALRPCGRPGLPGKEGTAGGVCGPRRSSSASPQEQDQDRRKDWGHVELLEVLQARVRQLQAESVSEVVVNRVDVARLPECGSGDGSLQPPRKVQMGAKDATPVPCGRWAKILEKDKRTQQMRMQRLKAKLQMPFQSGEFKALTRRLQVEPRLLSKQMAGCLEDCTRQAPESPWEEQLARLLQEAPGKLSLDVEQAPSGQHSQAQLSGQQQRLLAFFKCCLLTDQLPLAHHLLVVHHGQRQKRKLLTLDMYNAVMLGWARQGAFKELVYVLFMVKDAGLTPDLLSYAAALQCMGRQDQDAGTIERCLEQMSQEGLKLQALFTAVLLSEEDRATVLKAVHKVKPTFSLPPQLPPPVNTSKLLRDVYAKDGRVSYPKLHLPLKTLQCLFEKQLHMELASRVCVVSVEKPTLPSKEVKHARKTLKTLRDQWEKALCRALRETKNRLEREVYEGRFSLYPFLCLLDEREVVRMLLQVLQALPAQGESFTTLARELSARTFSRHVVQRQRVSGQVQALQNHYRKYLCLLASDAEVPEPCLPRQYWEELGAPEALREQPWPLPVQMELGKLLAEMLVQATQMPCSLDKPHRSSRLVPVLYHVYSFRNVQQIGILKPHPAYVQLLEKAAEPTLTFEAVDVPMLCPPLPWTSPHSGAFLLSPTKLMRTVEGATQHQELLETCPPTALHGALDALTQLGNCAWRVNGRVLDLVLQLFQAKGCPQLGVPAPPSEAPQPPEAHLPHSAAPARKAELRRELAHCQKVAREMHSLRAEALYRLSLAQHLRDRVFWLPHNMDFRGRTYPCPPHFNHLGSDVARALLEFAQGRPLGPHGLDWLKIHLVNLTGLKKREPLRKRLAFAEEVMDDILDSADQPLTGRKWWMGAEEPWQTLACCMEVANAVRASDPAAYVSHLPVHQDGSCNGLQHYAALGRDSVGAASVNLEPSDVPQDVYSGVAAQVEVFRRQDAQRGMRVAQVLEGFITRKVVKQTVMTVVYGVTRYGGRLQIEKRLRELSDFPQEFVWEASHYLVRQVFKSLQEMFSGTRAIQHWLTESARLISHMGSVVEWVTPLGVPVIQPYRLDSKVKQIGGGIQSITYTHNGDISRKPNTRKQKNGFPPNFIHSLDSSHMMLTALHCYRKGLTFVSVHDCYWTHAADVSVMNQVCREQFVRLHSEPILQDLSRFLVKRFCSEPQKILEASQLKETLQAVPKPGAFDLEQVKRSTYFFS

Homo sapiens [18] = organism: Homo sapiens; assay: Inhibition of human DNA-dependent DNA polymerase gamma using calf thymus DNA/[3H]dTTP as substrate by microplate scintillation reader; details: concentration not given here
[19] = Inhibition of Respiratory syncytial virus RNA polymerase in crude RSV RNP complex assessed as inhibition of [33P]CMP incorporation into RNA chain
Homo sapiens [20] = organism: Homo sapiens; assay: Inhibition of human DNA-dependent DNA polymerase alpha using calf thymus DNA/[3H]dTTP as substrate by microplate scintillation reader; details: concentration not given here
Homo sapiens [21] = organism: Homo sapiens; assay: Inhibition of human DNA-directed RNA polymerase 2 using cytomegalovirus DNA fragment as substrate; details: concentration not given here
[22] = test system: Respiratory syncytial virus; assay: Inhibition of Respiratory syncytial virus RNA polymerase in crude RSV RNP complex assessed as inhibition of [33P]CMP incorporation into RNA chain at 30 uM
[23] = target: DNA-directed RNA polymerase, mitochondrial (Homo sapiens) (UniProt O00411); assay: Binding affinity to human mitochondrial RNA polymerase assessed as compound incorporation using [33P]RNA/DNA primer/templates used by […] gel electrophoresis
[24] = test system: Respiratory syncytial virus; assay: Inhibition of Respiratory syncytial virus RNA polymerase in crude RSV RNP complex assessed as inhibition of [33P]CMP incorporation into RNA chain at 10 uM

Nc1ccn([C@@H]2O[C@@](CO)(CF)[C@@H](O)[C@H]2F)c(=O)n1
CC50 [1]: > 100000 nM
clearance [2]: 2.69 mL/min/kg
half-life [3]: 9.49 h
Drug metabolism (A549): 55 pmol
concentration [4]: 374 nM
concentration [5]: 5580 nM
Drug metabolism [6]: 27.9 pmol
Drug metabolism [7]: 153 pmol
clearance [8]: 54.3 mL/min/kg
half-life [9]: 7.66 h
AUC(0-inf) [10]: 1540 ng·h/mL
EC50 [11]: 160 nM
Vd [12]: 1.87 L/kg
AUC(0-inf) [13]: 31800 ng·h/mL
Ratio (Cynomolgus monkey): 3.39
Vd [14]: 5.6 L/kg
Drug metabolism [15]: 240 pmol

Nc1ccn([C@@H]2O[C@](CCl)(COP(=O)(O)OP(=O)(O)OP(=O)(O)O)[C@@H](O)[C@H]2F)c(=O)n1
inhibition [16]: < 50%
inhibition [17]: inactive
inhibition (Homo sapiens [18]): < 50%
IC50 [19]: 20 nM
inhibition (Homo sapiens [20]): < 50%
inhibition (Homo sapiens [21]): < 50%

Nc1ccn([C@@H]2O[C@](CCl)(COP(=O)(O)OP(=O)(O)OP(=O)(O)O)[C@@H](O)[C@@H]2O)c(=O)n1
inhibition [22]: 6%

Nc1ccn([C@@H]2O[C@H](COP(=O)(O)OP(=O)(O)OP(=O)(O)O)[C@@H](O)[C@@H]2O)c(=O)n1
Activity [23]: Active
inhibition [17]: Active

CC[C@]1(COP(=O)(O)OP(=O)(O)OP(=O)(O)O)O[C@@H](n2ccc(N)nc2=O)[C@H](F)[C@@H]1O
inhibition [16]: < 50%
inhibition [17]: inactive
inhibition (Homo sapiens [18]): < 50%
IC50 [19]: 150 nM
inhibition (Homo sapiens [20]): < 50%
inhibition (Homo sapiens [21]): < 50%

Nc1ccn([C@@H]2O[C@](CCl)(COP(=O)(O)OP(=O)(O)OP(=O)(O)O)[C@@H](O)[C@H]2O)c(=O)n1
IC50 [19]: 1600 nM

Nc1ccn([C@@H]2O[C@](CCl)(COP(=O)(O)OP(=O)(O)OP(=O)(O)O)[C@@H](O)C2(F)F)c(=O)n1
inhibition [24]: 38%

[N-]=[N+]=N[C@]1(COP(=O)(O)OP(=O)(O)OP(=O)(O)O)O[C@@H](n2ccc(N)nc2=O)[C@H](F)[C@@H]1O
Activity [23]: Active
inhibition [17]: Active
IC50 [19]: 100 nM

CSC[C@]1(COP(=O)(O)OP(=O)(O)OP(=O)(O)O)O[C@@H](n2ccc(N)nc2=O)[C@H](F)[C@@H]1O
IC50 [19]: 2700 nM

[N-]=[N+]=N[C@]1(COP(=O)(O)OP(=O)(O)OP(=O)(O)O)O[C@@H](n2ccc(N)nc2=O)C(F)(F)[C@@H]1O
inhibition [16]: < 50%
inhibition [17]: inactive
inhibition (Homo sapiens [18]): < 50%
IC50 [19]: 300 nM
inhibition (Homo sapiens [20]): < 50%
inhibition (Homo sapiens [21]): < 50%

CCC[C@]1(COP(=O)(O)OP(=O)(O)OP(=O)(O)O)O[C@@H](n2ccc(N)nc2=O)[C@H](F)[C@@H]1O
IC50 [19]: 2000 nM

Nc1ccn([C@@H]2O[C@](CBr)(COP(=O)(O)OP(=O)(O)OP(=O)(O)O)[C@@H](O)[C@H]2F)c(=O)n1
IC50 [19]: 150 nM

[N-]=[N+]=N[C@]1(COP(=O)(O)OP(=O)(O)OP(=O)(O)O)O[C@@H](n2ccc(N)nc2=O)[C@@H](O)[C@@H]1O
IC50 [19]: 200 nM
